Reference: patent publication US7601745B2, “Heterocyclic NF-kB inhibitors” (4SC AG, priority 2004, dated 2009)

System: A549-NF-κB-SEAP reporter cells
Test: Inhibition of NF-κB-induced inflammation ([…] NINA Instant Assay, SEAP reporter)
Format: cell-based
Details: compounds of formula (I); TNF-α stimulated reporter cells; test concentration not given
Description: For the determination of anti-inflammatory activity of the compounds the […]® NINA Instant Assay from Cell Culture Service GmBH was used. This assay is based on recombinant A549-NF-κB-SEAP reporter cells preseeded in 96-well flat bottom plates. As the transfected reportergen for SEAP (secreted embryonic alkaline phosphatase) is under transcriptional control of a NF-κB-responsive element, the expression of this reporter is activated upon stimulation with TNF-α. SEAP secretion into the culture supernatant can be detected by the chemiluminescent substrate CSPD®. Test compounds that inhibit the NF-κB activation show reduced SEAP activity and reduced luminescent readout.
Following 18 h of reactivation at 37° C., 5% CO2 and 90% relative humidity, the cells were incubated with 0.01 up to 100 μM of test compound for 4.5 h before stimulation with 2 ng/ml TNF-α. After stimulation with TNF-α for 22 h endogenous phosphatases were inactivated and CSPD® substrate was supplied for 40 min. SEAP activity then was quantified by measuring luminescence as relative light units (RLU) using a Tecan Ultra reader. Each data point was recorded in quadruplicates and EC50 values were calculated via fitting function and the Microsoft Excel Solver.

SMILES | Biological activity (NF-κB inflammation assay, inhibition)
COc1nc(OC)nc(N2CCN(C(=O)c3csc(C4CCNCC4)n3)CC2)n1 [compound 152] | ++ (“++” means 80-90%)
COc1ccc(N2CCC(c3nc(C(=O)N4CCN(c5cccc(C(F)(F)F)c5)CC4)cs3)CC2)c(OC)c1 [compound 153] | + (“+” stands for 50-80% inhibition)
O=C(c1csc(C2CCN(c3ccc(OC(F)(F)F)cc3)CC2)n1)N1CCN(c2cccc(C(F)(F)F)c2)CC1 [compound 154] | + (“+” stands for 50-80% inhibition)
O=C(c1csc(C2CCN(c3ccc(C(F)(F)F)cc3)CC2)n1)N1CCN(c2cccc(C(F)(F)F)c2)CC1 [compound 155] | + (“+” stands for 50-80% inhibition)
O=C(c1csc(C2CCN(c3ccc4c(c3)OCO4)CC2)n1)N1CCN(c2cccc(C(F)(F)F)c2)CC1 [compound 156] | + (“+” stands for 50-80% inhibition)
O=C(c1csc(C2CCN(c3ccc4c(c3)OCCO4)CC2)n1)N1CCN(c2cccc(C(F)(F)F)c2)CC1 [compound 157] | + (“+” stands for 50-80% inhibition)
COc1ccccc1N1CCC(c2nc(C(=O)N3CCN(c4cccc(C(F)(F)F)c4)CC3)cs2)CC1 [compound 158] | + (“+” stands for 50-80% inhibition)
COc1ccc(N2CCC(c3nc(C(=O)N4CCN(c5cccc(C(F)(F)F)c5)CC4)cs3)CC2)cc1OC [compound 159] | + (“+” stands for 50-80% inhibition)
COc1cc(N2CCC(c3nc(C(=O)N4CCN(c5cccc(C(F)(F)F)c5)CC4)cs3)CC2)nc(OC)n1 [compound 164] | ++ (“++” means 80-90%)
O=C(c1csc(C2CCN(Cc3ccccc3Br)CC2)n1)N1CCN(c2cccc(C(F)(F)F)c2)CC1 [compound 165] | + (“+” stands for 50-80% inhibition)
N#Cc1ccc(CN2CCC(c3nc(C(=O)N4CCN(c5cccc(C(F)(F)F)c5)CC4)cs3)CC2)cc1 [compound 166] | + (“+” stands for 50-80% inhibition)
O=C(c1csc(C2CCN(Cc3ccc(-c4ccccc4)cc3)CC2)n1)N1CCN(c2cccc(C(F)(F)F)c2)CC1 [compound 167] | + (“+” stands for 50-80% inhibition)
O=C(c1csc(C2CCN(Cc3c(F)cccc3F)CC2)n1)N1CCN(c2cccc(C(F)(F)F)c2)CC1 [compound 168] | + (“+” stands for 50-80% inhibition)
O=C(c1csc(C2CCN(Cc3ccc(C(F)(F)F)cc3)CC2)n1)N1CCN(c2cccc(C(F)(F)F)c2)CC1 [compound 169] | + (“+” stands for 50-80% inhibition)
O=C(c1csc(C2CCN(Cc3ccc(F)cc3)CC2)n1)N1CCN(c2cccc(C(F)(F)F)c2)CC1 [compound 170] | + (“+” stands for 50-80% inhibition)
O=C(c1csc(C2CCN(Cc3ccc(F)cc3Cl)CC2)n1)N1CCN(c2cccc(C(F)(F)F)c2)CC1 [compound 171] | + (“+” stands for 50-80% inhibition)

SMILES | Biological activity (NF-κB inflammation assay, inhibition)
O=C(c1csc(C2CCN(Cc3ccc(OC(F)(F)F)cc3)CC2)n1)N1CCN(c2cccc(C(F)(F)F)c2)CC1 [compound 172] | + (“+” stands for 50-80% inhibition)
COc1cccc(CN2CCC(c3nc(C(=O)N4CCN(c5cccc(C(F)(F)F)c5)CC4)cs3)CC2)c1 [compound 173] | + (“+” stands for 50-80% inhibition)
O=C(c1csc(C2CCN(Cc3ccc(Br)cc3)CC2)n1)N1CCN(c2cccc(C(F)(F)F)c2)CC1 [compound 174] | + (“+” stands for 50-80% inhibition)
O=C(c1csc(C2CCN(Cc3cc(C(F)(F)F)cc(C(F)(F)F)c3)CC2)n1)N1CCN(c2cccc(C(F)(F)F)c2)CC1 [compound 175] | + (“+” stands for 50-80% inhibition)
COc1nc(OC)nc(N2CCC(c3nc(C(=O)N4CCN(c5cccc(C(F)(F)F)c5)CC4)cs3)CC2)n1 [compound 176] | + (“+” stands for 50-80% inhibition)
O=C(c1csc(C2CCN(Cc3ccccc3)CC2)n1)N1CCN(c2cccc(C(F)(F)F)c2)CC1 [compound 177] | + (“+” stands for 50-80% inhibition)
COc1cccc(N2CCC(c3nc(C(=O)N4CCN(c5cccc(C(F)(F)F)c5)CC4)cs3)CC2)c1 [compound 178] | + (“+” stands for 50-80% inhibition)
O=C(Cc1ccc(F)cc1)N1CCC(c2nc(C(=O)N3CCN(c4ccccc4)CC3)cs2)CC1 [compound 180] | + (“+” stands for 50-80% inhibition)
O=C(Cc1ccc(F)cc1)N1CCC(c2nc(C(=O)N3CCC(n4nnc5cc(C(F)(F)F)ccc54)CC3)cs2)CC1 [compound 181] | + (“+” stands for 50-80% inhibition)
O=C(Cc1ccc(F)cc1)N1CCC(c2nc(C(=O)N3CCC(n4nnc5ccccc54)CC3)cs2)CC1 [compound 182] | + (“+” stands for 50-80% inhibition)
O=C(O)c1cccnc1C(=O)N1CCC(c2nc(C(=O)N3CCN(c4cccc(C(F)(F)F)c4)CC3)cs2)CC1 [compound 183] | + (“+” stands for 50-80% inhibition)
O=C(O)c1ccc(C(=O)O)c(C(=O)N2CCC(c3nc(C(=O)N4CCN(c5cccc(C(F)(F)F)c5)CC4)cs3)CC2)c1 [compound 184] | + (“+” stands for 50-80% inhibition)
O=C(O)c1ccccc1C(=O)N1CCC(c2nc(C(=O)N3CCN(c4cccc(C(F)(F)F)c4)CC3)cs2)CC1 [compound 185] | + (“+” stands for 50-80% inhibition)
O=C(O)c1cccc(O)c1C(=O)N1CCC(c2nc(C(=O)N3CCN(c4cccc(C(F)(F)F)c4)CC3)cs2)CC1 [compound 186] | + (“+” stands for 50-80% inhibition)
O=C(O)c1cc(Cl)c(Cl)cc1C(=O)N1CCC(c2nc(C(=O)N3CCN(c4cccc(C(F)(F)F)c4)CC3)cs2)CC1 [compound 187] | + (“+” stands for 50-80% inhibition)

Same assay, conditions: compounds of formula (Ic); TNF-α stimulated reporter cells; test concentration not given

SMILES | Biological activity (NF-κB inflammation assay, inhibition)
O=C(Cc1ccc(F)cc1)N1CCC(c2nc(C(=O)N3CCc4cc(O)c(O)cc4C3)cs2)CC1 [compound 160] | + (“+” stands for 50-80% inhibition)
COc1cc2c(cc1OC)CN(C(=O)c1csc(C3CCN(C(=O)Cc4ccc(F)cc4)CC3)n1)CC2 [compound 161] | + (“+” stands for 50-80% inhibition)
O=C(Cc1ccc(F)cc1)N1CCC(c2nc(C(=O)N3CCc4ccccc4C3)cs2)CC1 [compound 163] | + (“+” stands for 50-80% inhibition)
